Data published in patent publication US7662832B2, “Pyrrolo[2,3-c]pyridine derivatives and processes for the preparation thereof” (priority 2004, dated 2010).
Where a name gives a salt, the structure may show the parent alone.

The molecules below were run against Proton Pump (H^+/K^+-ATPase) (Sus scrofa, UniProt P19156) (assay: Inhibitory effects on proton pump (H^+/K^+-ATPase) activity). Conditions: hog gastric vesicles; K^+ stimulated H^+/K^+-ATPase activity; 30 minutes at 37° C.
Assay type: biochemical

Proton Pump (H^+/K^+-ATPase), sequence (P19156 2-1034 limits assumed): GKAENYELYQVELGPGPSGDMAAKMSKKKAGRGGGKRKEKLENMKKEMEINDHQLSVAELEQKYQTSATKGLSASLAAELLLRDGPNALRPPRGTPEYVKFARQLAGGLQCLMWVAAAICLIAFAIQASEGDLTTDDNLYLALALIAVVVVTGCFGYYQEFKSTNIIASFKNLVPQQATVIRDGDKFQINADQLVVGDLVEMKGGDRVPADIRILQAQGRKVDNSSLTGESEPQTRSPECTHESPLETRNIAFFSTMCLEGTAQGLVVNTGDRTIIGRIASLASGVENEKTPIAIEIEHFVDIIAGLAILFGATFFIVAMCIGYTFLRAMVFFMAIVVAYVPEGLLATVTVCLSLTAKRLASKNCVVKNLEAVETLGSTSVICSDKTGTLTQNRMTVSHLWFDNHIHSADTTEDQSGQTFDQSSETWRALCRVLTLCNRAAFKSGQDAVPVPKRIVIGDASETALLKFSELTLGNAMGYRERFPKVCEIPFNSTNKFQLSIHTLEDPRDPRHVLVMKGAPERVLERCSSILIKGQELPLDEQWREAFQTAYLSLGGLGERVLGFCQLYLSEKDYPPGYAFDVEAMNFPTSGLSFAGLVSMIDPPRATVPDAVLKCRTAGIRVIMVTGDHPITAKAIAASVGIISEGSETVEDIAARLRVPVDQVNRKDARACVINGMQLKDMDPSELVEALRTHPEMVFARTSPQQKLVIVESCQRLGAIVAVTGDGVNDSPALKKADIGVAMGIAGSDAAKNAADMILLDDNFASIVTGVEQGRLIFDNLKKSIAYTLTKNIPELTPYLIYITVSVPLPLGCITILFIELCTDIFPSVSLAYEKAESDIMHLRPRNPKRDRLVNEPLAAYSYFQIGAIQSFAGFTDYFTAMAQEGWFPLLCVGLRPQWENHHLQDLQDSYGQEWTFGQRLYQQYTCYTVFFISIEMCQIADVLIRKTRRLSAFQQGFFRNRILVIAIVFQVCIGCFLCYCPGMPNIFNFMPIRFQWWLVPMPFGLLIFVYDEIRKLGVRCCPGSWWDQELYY
Proton Pump (H^+/K^+-ATPase), sequence (P18434 whole entry partner): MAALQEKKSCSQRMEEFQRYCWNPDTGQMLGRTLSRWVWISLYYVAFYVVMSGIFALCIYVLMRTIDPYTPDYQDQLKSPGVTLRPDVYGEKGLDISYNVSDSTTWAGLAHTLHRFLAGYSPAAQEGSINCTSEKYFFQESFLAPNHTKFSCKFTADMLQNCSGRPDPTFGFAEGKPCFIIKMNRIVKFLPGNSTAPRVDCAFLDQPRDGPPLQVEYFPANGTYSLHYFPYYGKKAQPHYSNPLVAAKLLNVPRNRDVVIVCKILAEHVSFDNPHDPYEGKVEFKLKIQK

Compared with Cc1c(C)n(Cc2ccc(Cl)cc2)c2c(CN(C)c3ccc(F)cc3)nccc12 [Example 113, N-[1-(4-chlorobenzyl)-2,3-dimethyl-1H-pyrrolo[2,3-c]pyridin-7-ylmethyl]-N-(4-fluorophenyl)-methylamine hydrochloride], Cc1c(C)n(Cc2ccccc2)c2c(COc3ccc(Cl)cc3)nccc12 [Example 43, 1-benzyl-7-(4-chlorophenoxymethyl)-2,3-dimethyl-1H-pyrrolo[2,3-c]pyridine hydrochloride] is 2.5-fold lower in IC50: 327 nM for the first, 130 nM for the second. The second is the more potent here.

Compared with Cc1c(C)n(Cc2ccccc2)c2c(N3CCc4ccccc4C3)nc(C(=O)N3CCN(C)CC3)cc12 [Example 819, [1-benzyl-7-(3,4-dihydro-1H-isoquinolin-2-yl)-2,3-dimethyl-1H-pyrrolo[2,3-c]pyridin-5-yl]-(4-methylpiperazin-1-yl)-methanone hydrochloride], C#CCn1c(C)c(C)c2cc(C(N)=O)nc(N3CCc4ccccc4C3)c21 [Example 749, 7-(3,4-dihydro-1H-isoquinolin-2-yl)-2,3-dimethyl-1-(prop-2-ynyl)-1H-pyrrolo[2,3-c]pyridin-5-carboxamide] is 8-fold lower in IC50: 12 nM for the first, 1.5 nM for the second. The second is the more potent here.

Compared with C=Cc1ccc(-c2nccc3c(C)c(C)n(Cc4ccc5ccccc5c4)c23)cc1 [Example 257, 2,3-dimethyl-1-(naphthalen-2-ylmethyl)-7-(4-vinylphenyl)-1H-pyrrolo[2,3-c]pyridine hydrochloride], C=CCn1c(C)c(C)c2ccnc(-c3ccc(C=C)cc3)c21 [Example 245, 1-allyl-2,3-dimethyl-7-(4-vinylphenyl)-1H-pyrrolo[2,3-c]pyridine hydrochloride] is 2.7-fold lower in IC50: 270 nM for the first, 100 nM for the second. The second is the more potent here.

Cc1c(C)n(Cc2ccccc2)c2c(C=Cc3ccccc3)nccc12 [Example 418, 1-benzyl-2,3-dimethyl-7-styryl-1H-pyrrolo[2,3-c]pyridine hydrochloride] and CCNC(=O)c1cc2c(C)c(C)n(Cc3ccccc3)c2c(N2CCc3ccccc3C2)n1 [Example 765, 1-benzyl-7-(3,4-dihydro-1H-isoquinolin-2-yl)-2,3-dimethyl-N-ethyl-1H-pyrrolo[2,3-c]pyridin-5-carboxamide] are within 1.5-fold of each other in IC50: 290 nM for the first, 356 nM for the second.

Going from CCn1c(C)c(C)c2ccnc(N3CCc4ccc(F)cc4C3C)c21 (stereo not drawn) [Example 543, 2-(1-ethyl-2,3-dimethyl-1H-pyrrolo[2,3-c]pyridin-7-yl)-7-fluoro-1-methyl-1,2,3,4-tetrahydroisoquinoline hydrochloride] to C=CCn1c(C)c(C)c2ccnc(COc3ccc(F)cc3)c21 [Example 2, 1-allyl-7-(4-fluorophenoxymethyl)-2,3-dimethyl-1H-pyrrolo[2,3-c]pyridine hydrochloride], the IC50 rises from 110 nM to 410 nM (3.7-fold). The first is the more potent here.

First: C=CCn1c(C)c(C)c2ccnc(N3CCc4ccccc4C3CC)c21 (stereo not drawn) [Example 577, 2-(1-allyl-2,3-dimethyl-1H-pyrrolo[2,3-c]pyridin-7-yl)-1-ethyl-1,2,3,4-tetrahydroisoquinoline hydrochloride]
Second: Cc1c(C)n(Cc2ccccc2)c2c(N3CCc4ccccc4C3)nc(C(=O)N3CCOCC3)cc12 [Example 764, [1-benzyl-7-(3,4-dihydro-1H-isoquinolin-2-yl)-2,3-dimethyl-1H-pyrrolo[2,3-c]pyridin-5-yl]-(morpholin-4-yl)-methanone]
The IC50 of the first is 3.2-fold higher: 140 nM for the first, 44 nM for the second. The second is the more potent here.

First: Cc1ccc(CNc2nccc3c(C)c(C)n(CC4CC4)c23)cc1 [Example 204, 1-cyclopropylmethyl-2,3-dimethyl-7-(4-methylbenzylamino)-1H-pyrrolo[2,3-c]pyridine hydrochloride]
Second: Cc1c(C)n(Cc2ccccc2)c2c(N3CCc4ccccc4C3)nc(CN3CCN(C)CC3)cc12 [Example 883, 2-[1-benzyl-2,3-dimethyl-5-(4-methylpiperazin-1-ylmethyl)-1H-pyrrolo[2,3-c]pyridin-7-yl]-1,2,3,4-tetrahydroisoquinoline hydrochloride]
The IC50 of the first is 2.4-fold higher: 210 nM for the first, 87 nM for the second.

Going from Cc1c(C)n(Cc2cccc(F)c2)c2c(N3CCc4ccccc4C3)nc(CF)cc12 [Example 885, 2-[1-(3-fluorobenzyl)-5-fluoromethyl-2,3-dimethyl-1H-pyrrolo[2,3-c]pyridin-7-yl]-1,2,3,4-tetrahydroisoquinoline hydrochloride] to Cc1[nH]c2c(-c3ccc(F)cc3)nccc2c1C [Example 325, 7-(4-fluorophenyl)-2,3-dimethyl-1H-pyrrolo[2,3-c]pyridine hydrochloride], the IC50 rises from 217 nM to 1980 nM (9.1-fold). The first is the more potent here.

First: CC(C)=CCn1c(C)c(C)c2ccnc(N3CCc4ccc(F)cc4C3C)c21 (stereo not drawn) [Example 545, 2-[2,3-dimethyl-1-(3-methylbut-2-enyl)-1H-pyrrolo[2,3-c]pyridin-7-yl]-7-fluoro-1-methyl-1,2,3,4-tetrahydroisoquinoline hydrochloride]
Second: CCn1c(C)c(C)c2ccnc(NCc3ccccc3C)c21 [Example 225, 1-ethyl-2,3-dimethyl-7-(2-methylbenzylamino)-1H-pyrrolo[2,3-c]pyridine hydrochloride]
The IC50 of the first is 1.8-fold lower: 190 nM for the first, 350 nM for the second.

Compared with Cc1c(C)n(CC2CC2)c2c(N3CCc4ccccc4C3)nc(C(N)=O)cc12 [Example 754, 1-cyclopropylmethyl-7-(3,4-dihydro-1H-isoquinolin-2-yl)-2,3-dimethyl-1H-pyrrolo[2,3-c]pyridin-5-carboxamide], C=CCn1c(C)c(C)c2cc(C(=O)NCc3ccc4c(c3)OCO4)nc(N3CCc4ccccc4C3)c21 [Example 760, 1-allyl-7-(3,4-dihydro-1H-isoquinolin-2-yl)-2,3-dimethyl-N-(benzo[1,3]dioxol-5-ylmethyl)-1H-pyrrolo[2,3-c]pyridin-5-carboxamide hydrochloride] is 11-fold lower in IC50: 4050 nM for the first, 373 nM for the second. The second is the more potent here.

First: Cc1cccc(Cn2c(C)c(C)c3ccnc(N4CCc5ccccc5C4)c32)c1 [Example 515, 1-(3-methylbenzyl)-7-(1,2,3,4-tetrahydroisoquinolin-2-yl)-2,3-dimethyl-1H-pyrrolo[2,3-c]pyridine hydrochloride]
Second: CC(C)=CCn1c(C)c(C)c2ccnc(CN(C)c3ccc(F)cc3)c21 [Example 119, N-[2,3-dimethyl-1-(3-methylbut-2-enyl)-1H-pyrrolo[2,3-c]pyridin-7-ylmethyl]-N-(4-fluorophenyl)-methylamine hydrochloride]
The IC50 of the first is 2-fold lower: 200 nM for the first, 405 nM for the second. The first is the more potent here.

Going from C=CCn1c(C)c(C)c2ccnc(-c3ccc(OC)cc3)c21 [Example 360, 1-allyl-7-(4-methoxyphenyl)-2,3-dimethyl-1H-pyrrolo[2,3-c]pyridine hydrochloride] to Cc1c(C)n(Cc2cccc(Cl)c2)c2c(N3CCc4ccccc4C3)nc(C=O)cc12 [Example 863, 1-(3-chlorobenzyl)-7-(3,4-dihydro-1H-isoquinolin-2-yl)-2,3-dimethyl-1H-pyrrolo[2,3-c]pyridin-5-carbaldehyde], the IC50 falls from 278 nM to 109 nM (2.6-fold). The second is the more potent here.

First: Cc1c(C)n(Cc2cccc(F)c2)c2c(N3CCc4ccccc4C3)nc(CN3CCN(C)CC3)cc12 [Example 873, 2-[1-(3-fluorobenzyl)-2,3-dimethyl-5-(4-methylpiperazin-1-ylmethyl)-1H-pyrrolo[2,3-c]pyridin-7-yl]-1,2,3,4-tetrahydroisoquinoline hydrochloride]
Second: Cc1c(C)n(CC2CC2)c2c(COc3ccc(F)cc3)nccc12 [Example 7, 1-cyclopropylmethyl-7-(4-fluorophenoxymethyl)-2,3-dimethyl-1H-pyrrolo[2,3-c]pyridine hydrochloride]
The IC50 of the first is 15-fold lower: 26 nM for the first, 380 nM for the second. The first is the more potent here.

First: C=CCn1c(C)c(C)c2cc(C(=O)N3CCN(C)CC3)nc(N3CCc4ccccc4C3)c21 [Example 785, [1-allyl-7-(3,4-dihydro-1H-isoquinolin-2-yl)-2,3-dimethyl-1H-pyrrolo[2,3-c]pyridin-5-yl]-(4-methylpiperazin-1-yl)-methanone hydrochloride]
Second: CCn1c(C)c(C)c2ccnc(-c3ccc4ccccc4c3)c21 [Example 404, 1-ethyl-2,3-dimethyl-7-(naphthalen-2-yl)-1H-pyrrolo[2,3-c]pyridine hydrochloride]
The IC50 of the first is 140-fold lower: 0.7 nM for the first, 95 nM for the second. The first is the more potent here.

Compared with CC(C)=CCn1c(C)c(C)c2ccnc(N3CCc4ccccc4C3)c21 [Example 475, 1-(3-methylbut-2-enyl)-7-(1,2,3,4-tetrahydroisoquinolin-2-yl)-2,3-dimethyl-1H-pyrrolo[2,3-c]pyridine hydrochloride], Cc1c(C)n(Cc2cccc(F)c2)c2c(N3CCc4ccccc4C3)nc(C(=O)N3CCN(C)CC3)cc12 [Example 832, [7-(3,4-dihydro-1H-isoquinolin-2-yl)-1-(3-fluorobenzyl)-2,3-dimethyl-1H-pyrrolo[2,3-c]pyridin-5-yl]-(4-methylpiperazin-1-yl)-methanone hydrochloride] is 9.7-fold lower in IC50: 300 nM for the first, 31 nM for the second.

Going from “[7-(3,4-dihydro-1H-isoquinolin-2-yl)-1-(3-fluorobenzyl)-2,3-dimethyl-1H-pyrrolo[2,3-c]pyridin-5-yl]-methylamine hydrochloride [Example 888]” to Cc1c(C)n(Cc2cccc(F)c2)c2c(N3CCc4ccccc4C3)nc(CNC3CCC3)cc12 [Example 870, N-[7-(3,4-dihydro-1H-isoquinolin-2-yl)-1-(3-fluorobenzyl)-2,3-dimethyl-1H-pyrrolo[2,3-c]pyridin-5-ylmethyl]-cyclobutylamine hydrochloride], the IC50 rises from 20 nM to 43 nM (2.1-fold). The first is the more potent here.

First: C=CCCn1c(C)c(C)c2ccnc(N3CCc4ccccc4C3)c21 [Example 508, 1-(but-3-enyl)-7-(1,2,3,4-tetrahydroisoquinolin-2-yl)-2,3-dimethyl-1H-pyrrolo[2,3-c]pyridine hydrochloride]
Second: C=CCn1c(C)c(C)c2cc(C(=O)NC3CC3)nc(N3CCc4ccccc4C3)c21 [Example 761, 1-allyl-7-(3,4-dihydro-1H-isoquinolin-2-yl)-2,3-dimethyl-N-cyclopropyl-1H-pyrrolo[2,3-c]pyridin-5-carboxamide]
The IC50 of the first is 2.6-fold higher: 320 nM for the first, 125 nM for the second.

Going from C=CCn1c(C)c(C)c2ccnc(N3CCc4ccc(F)cc4C3C)c21 (stereo not drawn) [Example 544, 2-(1-allyl-2,3-dimethyl-1H-pyrrolo[2,3-c]pyridin-7-yl)-7-fluoro-1-methyl-1,2,3,4-tetrahydroisoquinoline hydrochloride] to COCCn1c(C)c(C)c2ccnc(N3CCc4ccccc4C3)c21 [Example 499, 1-(2-methoxyethyl)-7-(1,2,3,4-tetrahydroisoquinolin-2-yl)-2,3-dimethyl-1H-pyrrolo[2,3-c]pyridine hydrochloride], the IC50 rises from 22 nM to 65 nM (3-fold).
